Results published in patent US10894014B2, “Orodispersible tablet containing Estetrol” (ESTETRA SPRL, priority 2015, dated 2021).

What was measured:
[1] = Randomized, open-label, two-period, cross-over pharmacokinetic study, sublingual vs oral estetrol tablet; format: in vivo, healthy female volunteers; settings: 10 mg estetrol sublingual vs oral tablet
Experimental: A randomized, open-label, two-period, cross-over, pharmacokinetic study is conducted to compare sublingual bioavailability of 10 mg estetrol administered in one 80 mg tablet with oral availability of estetrol contained in a 83 mg tablet containing 10 mg estetrol. These tablets are administered sublingually and orally to healthy female volunteers under fasting conditions.
Ten healthy female subjects are selected on the basis of the following criteria: age of 45-65 years (inclusive), nonsmokers or past smokers (at least 6 months before dosing), body-mass index (BMI)=18.5 to 30 kg/m^2 (inclusive at the time of the screening).
At the start of the first and the second period of the study, between 07:00 am and 07:28 am, 5 subjects receive a single dose of the sublingual formulation of estetrol by administering one estetrol tablet (tablet weight 80 mg; 10 mg estetrol) and 5 subjects receive a single oral dose of the oral estetrol formulation by administering one estetrol tablet (tablet weight 83 mg; 10 mg estetrol), ingested together with 200 ml water. […]
The estetrol concentration in the collected blood samples is determined by means of HPLC/MS/MS. The concentrations of glucuronided estetrol (D-ring) in the urine samples is also determined with the help of HPLC/MS/MS.

[2] = humans, cited from earlier work
estrogen receptors = settings: in vitro; cited from earlier work
[3] = target: T1, sex hormone binding globulin (SHBG) (Homo sapiens, UniProt P04278); settings: in vitro; cited from earlier work
T1 sequence (P04278 30-402): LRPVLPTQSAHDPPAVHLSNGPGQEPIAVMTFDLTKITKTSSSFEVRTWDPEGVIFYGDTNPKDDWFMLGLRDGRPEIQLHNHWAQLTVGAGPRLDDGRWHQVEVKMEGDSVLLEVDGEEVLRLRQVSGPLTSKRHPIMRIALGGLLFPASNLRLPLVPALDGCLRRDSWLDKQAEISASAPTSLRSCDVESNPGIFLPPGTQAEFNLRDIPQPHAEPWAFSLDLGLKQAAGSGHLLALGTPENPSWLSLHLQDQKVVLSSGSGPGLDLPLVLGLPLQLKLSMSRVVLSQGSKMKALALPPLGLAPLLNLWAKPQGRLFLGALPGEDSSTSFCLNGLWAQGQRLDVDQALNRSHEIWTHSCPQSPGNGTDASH

production of SHBG = settings: in vitro; cited from earlier work
[4] = tested on: vagina, uterus, body weight, bone mass, bone strength, hot flushes, ovulation; settings: dose-dependent; cited from earlier work
DMBA mammary tumour = settings: extent and dose level similar to tamoxifen and to ovariectomy; cited from earlier work
[5] = tested on: human breast cancer cells; settings: in vitro; cited from earlier work

## C[C@]12CC[C@@H]3c4ccc(O)cc4CC[C@H]3[C@@H]1[C@@H](O)[C@@H](O)[C@@H]2O [estetrol, 1,3,5 (10)-estratrien-3,15α,16α,17β-tetrol]
[1]
  impact on a liver function parameter: less impact on a liver function parameter
[2]; oral
  oral bioavailability: high and dose-proportional
[2]
  terminal elimination half-life: about 28 hours
Estrogen receptors
  binding to estrogen receptors, selectivity: binds highly selective to the estrogen receptors with preference for the ERα form
[3]
  binding to SHBG: does not bind
Production of SHBG
  stimulation of production of SHBG: does not stimulate
[4]
  estrogenic effects in rat models: estrogenic effects on the vagina, the uterus (both myometrium and endometrium), body weight, bone mass, bone strength, hot flushes and on ovulation (inhibition)
DMBA mammary tumour
  tumour development: prevented tumour development
[5]
  effect in the presence of 17β-estradiol: anti-estrogenic effect
